Experiments:
Format in all cases: in vivo
[1] = tested on: rapeseed; test: Test Example 5: effect on crop by foliage application, plastic box (symbol g); conditions: 320 g/ha, 3 weeks after application
In short: (§1)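 Foliage-application test plants come from spot sowing in sterilized diluvial soil under a soil layer of about 1.5 cm, grown at 25° C. to 30° C. in a greenhouse.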

[2] = tested on: rapeseed; test: Test Example 4: effect on crop by soil treatment (symbol g)
In short: (§2)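 Crop seeds, among them rice, wheat, beet and rapeseed, were sown in sterilized diluvial soil and covered with about 1.5 cm of soil. Boxes were kept in a greenhouse at 25° C. to 30° C. for plant growth.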

[3] = tested on: Lolium multiflorum Lam.; test: Test Example 4: herbicidal effect by soil treatment (symbol K)
In short: (§3)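 Seeds were sown in sterilized diluvial soil, covered with about 1.5 cm of soil, and the soil surface was sprayed with a water-diluted emulsion of the compound at a predetermined rate. Plants grew in a greenhouse at 25° C. to 30° C.; effects were scored visually 3 weeks after application.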

[4] = tested on: Chenopodium album; test: Test Example 4: herbicidal effect by soil treatment (symbol O)
In short: as §3

[5] = tested on: Avena fatua; test: Test Example 5: herbicidal effect by foliage application, plastic box (symbol I); conditions: 320 g/ha, 3 weeks after application
In short: (§4)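 Visual herbicidal score, taken three weeks post-application, of seedlings sprayed on the foliage with water-diluted emulsion at a predetermined amount; plants were 14 days old, greenhouse-raised at 25° C. to 30° C.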

[6] = tested on: Digitaria ciliaris; test: Test Example 4: herbicidal effect by soil treatment (symbol F)
In short: as §3

[7] = tested on: Stellaria media; test: Test Example 5: herbicidal effect by foliage application, plastic box (symbol P); conditions: 320 g/ha, 3 weeks after application
In short: as §4

[8] = tested on: Scirpus juncoides; test: Test Example 1: herbicidal activity, application before weed generation in submerged conditions (symbol B); conditions: application herbicide amount 320 g/ha
In short: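 Flooded alluvial soil (4 cm water) was mixed-sown with the three weed species, and 2.5-leaf rice seedlings were transplanted. On sowing day, a water-diluted emulsion at a predetermined rate was applied to the water surface. After 3 weeks in a 25–30 °C greenhouse, effect was scored 0–5.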

[9] = tested on: Veronica persica; test: Test Example 5: herbicidal effect by foliage application, plastic box (symbol R); conditions: 320 g/ha, 3 weeks after application
In short: as §4

[10] = tested on: Chenopodium album; test: Test Example 5: herbicidal effect by foliage application, plastic box (symbol O); conditions: 320 g/ha, 3 weeks after application
In short: as §4

[11] = tested on: directly sowed rice plant; test: Test Example 3: effect on crop by foliage application, Wagner pot (symbol b); conditions: application herbicide amount 320 g/ha; for b (directly sowed rice plant) effect on crop grade: Table 24
In short: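 Wagner pot (1/10000 are), alluvial soil, submerged 0.1–0.5 cm; sown E. crus-galli var. crus-galli, L. chinensis, C. difformis, rice; greenhouse 25–30 °C.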

[12] = tested on: wheat; test: Test Example 5: effect on crop by foliage application, plastic box (symbol e); conditions: 320 g/ha, 3 weeks after application
In short: as §1

[13] = tested on: corn; test: Test Example 5: effect on crop by foliage application, plastic box (symbol c); conditions: 320 g/ha, 3 weeks after application
In short: as §1

[14] = tested on: rice; test: Test Example 4: effect on crop by soil treatment (symbol b)
In short: as §2

[15] = tested on: Avena fatua; test: Test Example 4: herbicidal effect by soil treatment (symbol I)
In short: as §3

[16] = tested on: Echinochloa crus-galli var. crus-galli; test: Test Example 4: herbicidal effect by soil treatment (symbol H)
In short: as §3

[17] = tested on: Digitaria ciliaris; test: Test Example 5: herbicidal effect by foliage application, plastic box (symbol F); conditions: 320 g/ha, 3 weeks after application
In short: as §4

[18] = application herbicide amount 320 g/ha

SMILES	g: rapeseed, effect on crop grade [1]	Effect on crop grade, g: rapeseed [2, 18]	Herbicidal effect grade, K: Lolium multiflorum Lam. [3, 18]	Herbicidal effect grade, O: Chenopodium album [4, 18]	I: Avena fatua, herbicidal effect grade [5]	Herbicidal effect grade, F: Digitaria ciliaris [6, 18]	P: Stellaria media, herbicidal effect grade [7]	B (Scirpus juncoides) herbicidal effect grade [8]	R: Veronica persica, herbicidal effect grade [9]	O: Chenopodium album, herbicidal effect grade [10]	b (directly sowed rice plant) effect on crop grade [11]	e: wheat, effect on crop grade [12]	c: corn, effect on crop grade [13]	Effect on crop grade, b: directly sowed rice plant [14, 18]	Herbicidal effect grade, I: Avena fatua [15, 18]	Herbicidal effect grade, H: Echinochloa crus-galli var. crus-galli [16, 18]	F: Digitaria ciliaris, herbicidal effect grade [17]	further results
CC(CC1CC(O)=C(c2c(C)cc(C)cc2C)C1=O)=NOCC(C)Cl (stereo not shown) [1-121]																		g: rapeseed, effect on crop (criteria 0-5) [1]: 5 (Herbicidal ratio of 90% or more (almost completely withered)); g: rapeseed, effect grade on crop ([2]; 320 g/ha): 3 (Herbicidal ratio of 40% or higher and lower than 70%); K: Lolium multiflorum Lam., herbicidal effect grade ([3]; 320 g/ha): 5 (Herbicidal ratio of 90% or more (almost completely withered)); O: Chenopodium album, herbicidal effect grade ([4]; 320 g/ha): 0 (Herbicidal ratio of 5% or lower (almost no effect)); I: Avena fatua, herbicidal effect (criteria 0-5) [5]: 5 (Herbicidal ratio of 90% or more (almost completely withered)); F: Digitaria ciliaris, herbicidal effect grade ([6]; 320 g/ha): 5 (Herbicidal ratio of 90% or more (almost completely withered)); P: Stellaria media, herbicidal effect (criteria 0-5) [7]: 2 (Herbicidal ratio of 20% or higher and lower than 40%); Herbicidal effect grade, B: Scirpus juncoides [8]: 5 (Herbicidal ratio of 90% or more (almost completely withered)); R: Veronica persica, herbicidal effect (criteria 0-5) [9]: 3 (Herbicidal ratio of 40% or higher and lower than 70%); O: Chenopodium album, herbicidal effect (criteria 0-5) [10]: 3 (Herbicidal ratio of 40% or higher and lower than 70%); effect on crop b (directly sowed rice plant), grade 0-5 [11]: 5 (Herbicidal ratio of 90% or more (almost completely withered)); e: wheat, effect on crop (criteria 0-5) [12]: 3 (Herbicidal ratio of 40% or higher and lower than 70%); c: corn, effect on crop (criteria 0-5) [13]: 5 (Herbicidal ratio of 90% or more (almost completely withered)); b: directly sowed rice plant, effect grade on crop ([14]; 320 g/ha): 5 (Herbicidal ratio of 90% or more (almost completely withered)); I: Avena fatua, herbicidal effect grade ([15]; 320 g/ha): 1 (Herbicidal ratio of 5% or higher and lower than 20%); H: Echinochloa crus-galli var. crus-galli, herbicidal effect grade ([16]; 320 g/ha): 5 (Herbicidal ratio of 90% or more (almost completely withered)); F: Digitaria ciliaris, herbicidal effect (criteria 0-5) [17]: 5 (Herbicidal ratio of 90% or more (almost completely withered))
CON=C(C)CC1(C)CC(O)=C(c2c(C)cc(C)cc2C)C1=O (mixture of isomers) [11-002]	4 (Herbicidal ratio of 70% or higher and lower than 90%)	2 (Herbicidal ratio of 20% or higher and lower than 40%)	5 (Herbicidal ratio of 90% or more (almost completely withered))	0 (Herbicidal ratio of 5% or lower (almost no effect))	5 (Herbicidal ratio of 90% or more (almost completely withered))	0 (Herbicidal ratio of 5% or lower (almost no effect))	0 (Herbicidal ratio of 5% or lower (almost no effect))	0 (Herbicidal ratio of 5% or lower (almost no effect))	0 (Herbicidal ratio of 5% or lower (almost no effect))	0 (Herbicidal ratio of 5% or lower (almost no effect))	5 (Herbicidal ratio of 90% or more (almost completely withered))	2 (Herbicidal ratio of 20% or higher and lower than 40%)	2 (Herbicidal ratio of 20% or higher and lower than 40%)	4 (Herbicidal ratio of 70% or higher and lower than 90%)	3 (Herbicidal ratio of 40% or higher and lower than 70%)	3 (Herbicidal ratio of 40% or higher and lower than 70%)	4 (Herbicidal ratio of 70% or higher and lower than 90%)	
COc1cc(Br)cc(C)c1C1=C(O)CC(CC(=O)C2CC2)C1=O (racemic) [14-001]	4 (Herbicidal ratio of 70% or higher and lower than 90%)				5 (Herbicidal ratio of 90% or more (almost completely withered))		0 (Herbicidal ratio of 5% or lower (almost no effect))	3 (Herbicidal ratio of 40% or higher and lower than 70%)	2 (Herbicidal ratio of 20% or higher and lower than 40%)	0 (Herbicidal ratio of 5% or lower (almost no effect))	5 (Herbicidal ratio of 90% or more (almost completely withered))	4 (Herbicidal ratio of 70% or higher and lower than 90%)	5 (Herbicidal ratio of 90% or more (almost completely withered))				5 (Herbicidal ratio of 90% or more (almost completely withered))	g: rapeseed, effect on crop grade [2, 18]: 0 (Herbicidal ratio of 5% or lower (almost no effect)); K: Lolium multiflorum Lam., herbicidal effect grade [3, 18]: 5 (Herbicidal ratio of 90% or more (almost completely withered)); O: Chenopodium album, herbicidal effect grade [4, 18]: 0 (Herbicidal ratio of 5% or lower (almost no effect)); F: Digitaria ciliaris, herbicidal effect grade [6, 18]: 5 (Herbicidal ratio of 90% or more (almost completely withered)); b: directly sowed rice plant, effect on crop grade [14, 18]: 5 (Herbicidal ratio of 90% or more (almost completely withered)); I: Avena fatua, herbicidal effect grade [15, 18]: 5 (Herbicidal ratio of 90% or more (almost completely withered)); H: Echinochloa crus-galli var. crus-galli, herbicidal effect grade [16, 18]: 5 (Herbicidal ratio of 90% or more (almost completely withered))
CC#Cc1cc(C)c(C2=C(O)CC(CC(=NOCCOC)C3CC3)C2=O)c(C)c1 (stereo not shown) [9-021]	4 (Herbicidal ratio of 70% or higher and lower than 90%)	2 (Herbicidal ratio of 20% or higher and lower than 40%)	5 (Herbicidal ratio of 90% or more (almost completely withered))	0 (Herbicidal ratio of 5% or lower (almost no effect))	4 (Herbicidal ratio of 70% or higher and lower than 90%)	5 (Herbicidal ratio of 90% or more (almost completely withered))	1 (Herbicidal ratio of 5% or higher and lower than 20%)	5 (Herbicidal ratio of 90% or more (almost completely withered))	4 (Herbicidal ratio of 70% or higher and lower than 90%)	3 (Herbicidal ratio of 40% or higher and lower than 70%)	5 (Herbicidal ratio of 90% or more (almost completely withered))	4 (Herbicidal ratio of 70% or higher and lower than 90%)	5 (Herbicidal ratio of 90% or more (almost completely withered))	5 (Herbicidal ratio of 90% or more (almost completely withered))	1 (Herbicidal ratio of 5% or higher and lower than 20%)	5 (Herbicidal ratio of 90% or more (almost completely withered))	5 (Herbicidal ratio of 90% or more (almost completely withered))	
CC(CC1CC(O)=C(c2c(C)cc(-c3ccc(Cl)cc3)cc2C)C1=O)=NOCC(F)(F)F (stereo not shown) [9-024]	4 (Herbicidal ratio of 70% or higher and lower than 90%)	0 (Herbicidal ratio of 5% or lower (almost no effect))	5 (Herbicidal ratio of 90% or more (almost completely withered))	0 (Herbicidal ratio of 5% or lower (almost no effect))	5 (Herbicidal ratio of 90% or more (almost completely withered))	5 (Herbicidal ratio of 90% or more (almost completely withered))	4 (Herbicidal ratio of 70% or higher and lower than 90%)	4 (Herbicidal ratio of 70% or higher and lower than 90%)	4 (Herbicidal ratio of 70% or higher and lower than 90%)	4 (Herbicidal ratio of 70% or higher and lower than 90%)	5 (Herbicidal ratio of 90% or more (almost completely withered))	3 (Herbicidal ratio of 40% or higher and lower than 70%)	5 (Herbicidal ratio of 90% or more (almost completely withered))	5 (Herbicidal ratio of 90% or more (almost completely withered))	3 (Herbicidal ratio of 40% or higher and lower than 70%)	5 (Herbicidal ratio of 90% or more (almost completely withered))	5 (Herbicidal ratio of 90% or more (almost completely withered))	

— US11000033B2, “Ketone or oxime compound, and herbicide” (NISSAN CHEMICAL CORPORATION, priority 2014, dated 2021)
